Laboratory results: patent US20250017886A1, “FORMULATIONS AND METHODS FOR INCREASING CREATININE LEVELS IN PLASMA, EXTRACELLULAR FLUID AND/OR INTRACELLULAR COMPARTMENTS” (Vireo Systems, Inc., priority 2023, published 2025)
≈ marks a conversion by molar mass, not a printed value. Entries after “also recorded” stand apart in the source; their conditions may differ. Counter-ions that a name gives are not always drawn. One block for each compound: values may come before it.

Experiments:
[1] = Saturated aqueous solubility determination (HPLC); type: physicochemical; settings: for Ratio (relative to CM): solubility relative to creatine monohydrate; for solubility at 1.5 h: thermodynamic from solid, deionized water, 25° C.
Method: After 1.5 hour, the saturated solutions were vortexed and 2-ml aliquots removed and centrifuged in microcentrifuge tubes at 11,000 rpm for 5 min. Concentrations were analyzed by HPLC by diluting 500 μL of supernatant with mobile phase (500 μL). The mean±standard deviation of the saturation solubility for each antiviral therapeutic compound is calculated from the corresponding standard curves.

[2] = system: human colon epithelial (Caco-2); test: Creatinine uptake in Caco-2 cells; type: cell-based; settings: Caco-2, 1 mM, 3-hour period; hydrochloride
[3] = system: human brain endothelial cells (HCMEC/d3); test: Creatinine uptake in HCMEC/d3 cells; type: cell-based; settings: HCMEC/d3, 1 mM, 3-hour period
Method: In an effort to determine the impact/effectiveness of a formulation made in accordance with the present disclosure on increasing creatinine delivery, different cell types were exposed to several of the formulations in Example 1. More specifically, cellular uptake studies were performed for formulations including CEE and CtB from Example 1. […] In other words, it remains unknown where there is a transporter involved in the accumulation of creatinine. Without being bound by any particular theory, if a transporter is involved for accumulation of creatinine, it may be the organic cation transporter 2 (OCT2) found in kidney tubule epithelial cells. The various cell lines discussed above were first exposed to 1 mM of creatinine (CRN), CEE, and CtB at 37° C. for a 3-hour incubation period at a pH 7.4. After incubation, the assay buffer was collected. The cells were then washed rapidly three times with ice-cold phosphate-buffered saline solution. […] More specifically, the creatinine content in cell lysates was determined using QuantichromTM Creatinine Assay Kit (DICT 500) from Bioassay Systems (Hayward, CA). The assay quantitatively measures creatinine without any pretreatment through an optimized Jaffe method. […] The intensity of the red, measured at 510 nm, is directly proportional to the concentration of creatinine in the sample. […]

[4] = system: hCMEC/d3 microfluidic culture model; test: Permeability of microfluidic BBB model treated with cancer patient plasma; type: cell-based, human; settings: for permeability coefficient: 1 mM CtB
[5] = system: hBMEC/d3 cells; test: Bradykinin-induced prostaglandin E2 release (PGE2 ELISA); type: cell-based; settings: for inhibition of prostaglandin (PGE2) release: 1.0 mM, 1-hour preincubation, 10 μM bradykinin, at 6 and 24 hours, compared with 10 μM HOE 140
Method: In an effort to determine the impact/effectiveness of creatinine pronutrient formulations made in accordance with the present disclosure on decreasing prostaglandin release over a 24-hour period due to bradykinin exposure, hBMEC/d3 cells were pre-treated with a creatinine pronutrient of the present disclosure and then exposed to 10 μM bradykinin. More specifically, hBMEC/d3 cells were grown on T25 flasks to confluency. Media was removed and exchanged with endothelial cell media containing 0.1% BSA and (1) 1.0 mM CEE, (2) 1.0 mM creatine t-butyl ester hydrochloride (CtB), or (3) 10 μM HOE 140 (a known BR2 receptor antagonist). After a 1-hour incubation, bradykinin (10 μM) was added and samples of media removed and assayed for prostaglandin E2 (PGE2) at 3, 6 and 24 hours. The amount of PGE 2 secreted into the media by the cells was determined using a PGE2 ELISA and normalized to cell lysate protein content.

[6] = Human single oral dose pharmacokinetics of creatinine (Ostojic et al. 2019); type: in vivo; settings: plasma, oral 3 grams creatinine given with 3 grams creatine nitrate, computed from literature data, read-out: AUC(0-120m) (converted)
Source text: The creatinine data in Table 4 was generated from the data provided in Ostojic et al., Food Sci Nutr. 2019. […] In order to assess the relative bioavailability of the formulations (and to correct for the slightly different doses administered with various forms due to the different molecular weights), the AUC plasma uptake values observed for creatinine and the creatinine pronutrient formulation were entered into the following equation to produce a ratio: […]

[7] = human, oral 3 grams creatinine given with 3 grams creatine nitrate; cited from earlier work
[8] = cited from earlier work
[9] = Rat PK study, plasma levels after creatinine pronutrient dosing; type: in vivo, sprague-dawley male rats
Method: A rat PK study was performed to determine resulting plasma creatinine levels following creatinine pronutrient dosing. […] Levels of creatine, creatinine pronutrient, and creatinine in the plasma were measured over time. In this study, the specific creatinine pronutrient used was creatine ethyl ester hydrochloride. Blood samples were collected over a 4-hour period via femoral artery catheter. Muscle and brain tissue were collected at the end of the study. Liquid chromatography-mass spectrometry (LCMS) was used for analysis of samples. The area under the plasma concentration curve following oral dosing was compared to that obtained following IV administration. The creatinine pronutrient formulation data in Table 4 was generated from the creatinine data gathered in Example 4 using allometric dosing to determine the human dose equivalent for the labeled creatinine pronutrient (for a 70 kg human). In order to assess the relative bioavailability of the formulations (and to correct for the slightly different doses administered with various forms due to the different molecular weights), the AUC plasma uptake values observed for creatinine and the creatinine pronutrient formulation were entered into the following equation to produce a ratio: […]

[10] = system: hCMEC/d3 (human brain endothelial cells); test: Bradykinin-induced permeability in microfluidic BBB culture model; type: cell-based; settings: 1 mM CEE pretreatment 1-hour
Method: In an effort to determine the impact/effectiveness of creatinine pronutrient formulations made in accordance with the present disclosure, studies examined bradykinin-induced effects on endothelial permeability using a microfluidic blood-brain barrier (BBB) culture model consisting of hCMEC/d3 (human brain endothelial cells) grown on Mimeta microfluidic plates. More specifically, permeability studies were performed using the microfluidic BBB culture model under control conditions and following exposure to a low dose (10 nM) or high dose (10 μM) of bradykinin in either the presence or absence of creatine ethyl ester hydrochloride (CEE) as the creatinine pronutrient.
hCMEC/d3 cells in Mimeta microfluidic plate were pretreated for 1 hour with media or media+1 mM CEE. Thereafter, the cells were treated with a low concentration (10 nM) or high concentration (10 μM) of bradykinin. The permeability of a fluorescent dye (IRdye 800) was assessed after 30 minutes.

[11] = target: COX1 (Homo sapiens, UniProt P23219); test: COX activity, COX1; type: biochemical
Sequence of COX1 (P23219 24-599): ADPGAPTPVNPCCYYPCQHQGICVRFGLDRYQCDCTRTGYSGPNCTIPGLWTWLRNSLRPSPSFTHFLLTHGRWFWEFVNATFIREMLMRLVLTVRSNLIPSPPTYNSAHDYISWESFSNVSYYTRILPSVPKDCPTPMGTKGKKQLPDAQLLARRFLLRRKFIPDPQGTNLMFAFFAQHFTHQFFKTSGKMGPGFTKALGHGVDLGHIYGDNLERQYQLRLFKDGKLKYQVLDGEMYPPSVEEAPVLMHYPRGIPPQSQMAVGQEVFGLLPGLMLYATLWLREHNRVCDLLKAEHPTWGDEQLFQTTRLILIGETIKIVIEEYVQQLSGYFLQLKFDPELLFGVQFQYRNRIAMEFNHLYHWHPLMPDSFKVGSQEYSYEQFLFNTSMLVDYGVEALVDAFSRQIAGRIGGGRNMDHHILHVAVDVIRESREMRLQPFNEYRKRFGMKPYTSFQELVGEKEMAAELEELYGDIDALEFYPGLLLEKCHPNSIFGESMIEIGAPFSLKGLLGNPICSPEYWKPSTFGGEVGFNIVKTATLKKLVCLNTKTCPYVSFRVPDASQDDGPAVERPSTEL
Source text: (§1) The effects of the creatinine pronutrient on PGE2 release was not due to the inhibition of prostaglandin synthesis through cyclooxygenase (COX) as production of prostaglandins by either COX1 or COX2 was unaffected by CEE.

[12] = target: T1, COX2 (Homo sapiens, UniProt P35354); test: COX activity, COX2; type: biochemical
T1 sequence (P35354 18-604): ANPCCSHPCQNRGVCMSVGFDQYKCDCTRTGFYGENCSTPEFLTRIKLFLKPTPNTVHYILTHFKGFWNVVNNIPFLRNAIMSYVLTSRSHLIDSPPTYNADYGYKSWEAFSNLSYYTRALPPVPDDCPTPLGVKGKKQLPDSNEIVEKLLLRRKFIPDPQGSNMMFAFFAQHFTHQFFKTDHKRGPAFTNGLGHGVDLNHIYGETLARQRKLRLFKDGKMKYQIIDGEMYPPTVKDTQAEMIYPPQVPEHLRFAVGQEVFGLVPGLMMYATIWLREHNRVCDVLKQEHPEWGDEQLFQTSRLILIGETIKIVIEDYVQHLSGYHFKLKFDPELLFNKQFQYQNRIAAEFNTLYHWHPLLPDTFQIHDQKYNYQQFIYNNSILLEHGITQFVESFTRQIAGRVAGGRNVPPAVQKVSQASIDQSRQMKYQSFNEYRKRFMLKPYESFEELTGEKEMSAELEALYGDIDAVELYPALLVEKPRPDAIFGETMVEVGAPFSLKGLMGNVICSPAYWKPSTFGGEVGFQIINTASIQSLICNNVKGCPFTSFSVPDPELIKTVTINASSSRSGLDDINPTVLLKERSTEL
Source text: as §1

[13] = rat, after 10 or 70 mg/kg oral or 10 mg/kg IV creatinine pronutrient

SMILES: CN(CC(=O)OC(C)(C)C)C(=N)N.Cl [CtB, creatine tert-butyl ester hydrochloride]
Ratio (relative to CM) [1]: ≥18
solubility at 1.5 h [1]: 389 mg/mL
creatinine accumulation compared with 1 mM creatinine [2]: greater; also recorded: almost double
creatinine accumulation compared with 1 mM creatinine [3]: greater
permeability coefficient ([4]; breast cancer patient CF80 6 month plasma, 24-hour treatment (2.78×10^−8 without CtB)): 9.63e-09 cm/s
permeability coefficient ([4]; breast cancer patient CF80 baseline plasma, 24-hour treatment (1.06×10^−8 without CtB)): 2.97e-09 cm/s
permeability increases produced by plasma samples from cancer patients ([4]; addition of 1 mM): attenuated
inhibition of prostaglandin (PGE2) release [5]: as effective at inhibiting prostaglandin release as the known BR2 receptor antagonist HOE 140

SMILES: CCOC(=O)CCNC(=N)N [Ethyl (α-guanido-methyl) ethonoate, ethyl (α-guanido-methyl) ethanoate]
Ratio (relative to CM) [1]: >8
solubility at 1.5 h [1]: 178 ± 7.2 mg/mL (≈ 1120 mM)

SMILES: CC(C)CCOC(=O)CN(C)C(=N)N [Creatine Isopentyl Ester HCl, creatine isopentyl ester hydrochloride]
Ratio (relative to CM) [1]: >29
solubility at 1.5 h [1]: > 600 mg/mL

SMILES: CN(CC(=O)OC1CCCCC1)C(=N)N [Creatine Cyclohexyl Ester Tosylate, creatine cyclohexyl ester]
Ratio (relative to CM) [1]: <1.0
solubility at 1.5 h [1]: 15 to 20 mg/mL

SMILES: CN1CC(=O)NC1=N [Creatinine, creatinine]
AUC [6]: 4600 ng·h/mL
Cmax (plasma creatinine) [7]: 15.3 µg/mL
Cmin (plasma creatinine) [7]: 11.3 µg/mL
Tmax [7]: 60 min
solubility [8]: 23 mg/mL (≈ 203 mM)

The next lines start with results.

Ratio (relative to CM) [1]: >29
solubility at 1.5 h [1]: > 600 mg/mL
SMILES: CCOC(=O)CNC(=O)CN(C)C(=N)N [Creatine Glycinamide Ethyl Ester HCl, creatine glycinamide ethyl ester]

Ratio (relative to CM) [1]: >9
solubility at 1.5 h [1]: 205 mg/mL
creatinine delivered to the plasma as compared to creatinine ([9]; high and low doses): twice as much
creatine in plasma samples [9, 13]: no detectable amount
creatinine pronutrient in plasma samples [9, 13]: Small but measurable amounts
creatinine in plasma samples ([9]; rat, after creatinine pronutrient dosing, especially at the high dose): Substantial levels
production of prostaglandins by COX1 [11]: unaffected
production of prostaglandins by COX2 [12]: unaffected
SMILES: CCOC(=O)CN(C)C(=N)N [CEE, creatine ethyl ester hydrochloride]
permeability coefficient of IRdye 800 ([10]; then 10 nM bradykinin (1.05×10^−8 without CEE)): 3.43e-09 cm/s
permeability coefficient of IRdye 800 ([10]; then 10 μM bradykinin (2.90×10^−8 without CEE)): 1.42e-08 cm/s
PGE release in response to bradykinin [5]: prevents PGE release
inhibition of prostaglandin (PGE2) release [5]: as effective at inhibiting prostaglandin release as the known BR2 receptor antagonist HOE 140
